Assay in all cases: microbe, parasite or virus in culture
Assay [1] deals with florfenicol resistant E. coli clinical strain 2017XJ30. The assay is classed as cell-based, Escherichia coli. The protocol: (§1) All the florfenicol-polyarginine conjugates were tested against Gram-positive and Gram-negative bacteria, including MRSA (ATCC 43300), S. aureus (ATCC 25923), E. coli (ATCC 25922), clinical strains of E. coli (2019XJ06, 2019XJ25, 2018XJ108, 2018XJ105, 2018XJ30) and clinical strains of florfenicol resistant E. coli (2017XJ30, 2019XJ20).
(§2) Gram-negative E. coli (ATCC 25922), clinical strains of E. coli (2019XJ06, 2019XJ25, 2018XJ108, 2018XJ105, 2018XJ30) and clinical strains of florfenicol resistant E. coli (2017XJ30, 2019XJ20) and Gram-positive MRSA (ATCC 43300) and S. aureus (ATCC 25923) were maintained in 50% glycerol at −80°C up to the time of use. The bacterial strains were cultured in Muller-Hinton broth (Guangdong Huan Kai Microbial Sci. &Tech. Co., Ltd. in China) media. Mueller-Hinton agar (Guangdong Huan Kai Microbial Sci. & Tech. Co., Ltd. in China) was used as growth medium in solid media.
(§3) CLSI guidelines were followed for determining MICs of all florfenicol-polyarginine conjugates by the broth microdilution method. The required bacterial (E. coli, S. aureus and MRSA) single colony was inoculated into Muller-Hinton broth (MHB) and cultured for 4–6 h. And then, the bacteria were adjusted to 10^6 CFU/ml in cultures. All compounds were prepared into a stock solution at a concentration of 0.1 mol/L with DMSO. The stock solutions were then diluted to required concentration (100, 50, 25, 12.5, 6.25, 3.125, 1.56, 0.78, 0.39 μmol/L) with MHB media. Subsequently, a 96 well plate was filled with these dilutions and 10^6 CFU/ml bacterial suspension. The diluted compounds of different concentrations (100 µl) were first added to 96 well plate, and then 100 µl bacterial dilutions (10^6 CFU/ml) was added. The negative and positive controls were 200 µl of MHB media and 100 µl of bacterial suspension combined with 100 µl of MHB media, respectively. The experiment of each compound was repeated three times, and each experiment was at least twice repeated. The 96 well plates were incubated at 37°C for 16–24 h. MIC indicated antibacterial activity. Florfenicol was used as a control drug.

The subject of assay [2] is E. coli clinical strain 2018XJ105. The assay is classed as cell-based, Escherichia coli. The procedure: as §1, §2, §3
In assay [3] the test system is E. coli clinical strain 2019XJ25. The assay is classed as cell-based, Escherichia coli. The protocol:
as §1, §2, §3

The next assay relates to E.coli (ATCC 25922). The assay is classed as cell-based, Escherichia coli. The protocol: as §1, §2, §3
Assay [4] has as its system E. coli clinical strain 2018XJ108. The assay is classed as cell-based, Escherichia coli. The procedure:
as §1, §2, §3

Assay [5] has as its system florfenicol resistant E. coli clinical strain 2019XJ20. The assay is classed as cell-based, Escherichia coli. The procedure: as §1, §2, §3
In assay [6] the test system is E. coli clinical strain 2019XJ06. The assay is classed as cell-based, Escherichia coli. The protocol: as §1, §2, §3
In assay [7] the test system is E. coli clinical strain 2018XJ30. The assay is classed as cell-based, Escherichia coli. The procedure: as §1, §2, §3
The subject of a further assay is MRSA (ATCC 43300). The assay is classed as cell-based, methicillin-resistant S. aureus. The procedure: as §1, §2, §3
Assay [8] deals with 10 strains tested (E. coli, S. aureus, MRSA, clinical E. coli strains). The assay is classed as cell-based. Conditions: Escherichia coli; against the 10 strains tested; read-out: MIC. The protocol:
as §1, §2, §3

In another assay the test system is S. aureus (ATCC 292130). The assay is classed as cell-based, Staphylococcus aureus.
Where [9] appears, read: florfenicol resistant clinical strain 2017XJ30.
[10] abbreviates: florfenicol resistant clinical strain 2019XJ20.

From publication PMC9284121, “Florfenicol-Polyarginine Conjugates Exhibit Promising Antibacterial Activity Against Resistant Strains” (Frontiers in Chemistry, 2022) come the findings set out here.

≈ marks a conversion by molar mass, not a printed value. Where two headings read alike, the source gives them in different places. Where a SMILES comes first, the peptide text is derived from it. Bounds are passed on as bounds.

As for `CS(=O)(=O)c1ccc([C@@H](OC(=O)CCC(=O)O)[C@@H](CF)NC(=O)C(Cl)Cl)cc1` [Compound C1, florfenicol succinate], the MIC was over 100 µM in [1] (Escherichia coli, florfenicol resistant E. coli 2017XJ30, MHB, read-out: MIC); over 100 µM in assay [2] (Escherichia coli, clinical E. coli 2018XJ105, MHB, read-out: MIC); over 100 µM in assay [3] (Escherichia coli, clinical E. coli 2019XJ25, MHB, read-out: MIC); over 100 µM in the assay with E.coli (ATCC 25922) (Escherichia coli, ATCC25922, E.coli (ATCC 25922), MHB, read-out: MIC); over 100 µM in assay [4] (Escherichia coli, clinical E. coli 2018XJ108, MHB, read-out: MIC); over 100 µM in assay [5] (Escherichia coli, florfenicol resistant E. coli 2019XJ20, MHB, read-out: MIC). In addition, the MIC is over 100 µM in assay [6] (Escherichia coli, clinical E. coli 2019XJ06, MHB, read-out: MIC); over 100 µM in assay [7] (Escherichia coli, clinical E. coli 2018XJ30, MHB, read-out: MIC); over 100 µM in the assay with MRSA (ATCC 43300) (Staphylococcus aureus, MRSA (ATCC 43300), MHB, read-out: MIC); over 100 µM in [8]; over 100 µM with S. aureus (ATCC 292130) (Staphylococcus aureus, ATCC292130, S. aureus (ATCC 292130), MHB, read-out: MIC).
Turning to `COC(=O)[C@@H](N)CCCNC(=N)N` [Compound D1], the MIC (in [1] (setting [9]); in assay [2] (clinical strain 2018XJ105); in assay [3] (clinical strain 2019XJ25); with E.coli (ATCC 25922) (ATCC 25922); in [4] (clinical strain 2018XJ108); in [5] (setting [10])) was over 100 µM throughout. The MIC (in assay [6] (clinical strain 2019XJ06); in [7] (clinical strain 2018XJ30); in the assay on MRSA (ATCC 43300) (ATCC 43300); against S. aureus (ATCC 292130) (ATCC 292130)) was over 100 µM throughout.
In the case of `N=C(N)NCCC[C@H](N)C(N)=O` [Compound D2], the MIC (in assay [1] (setting [9]); in [2] (clinical strain 2018XJ105); in assay [3] (clinical strain 2019XJ25); against E.coli (ATCC 25922) (ATCC 25922); in [4] (clinical strain 2018XJ108); in [5] (setting [10])) was over 100 µM in each case. Besides, the MIC (in assay [6] (clinical strain 2019XJ06); in [7] (clinical strain 2018XJ30); with MRSA (ATCC 43300) (ATCC 43300); in the assay with S. aureus (ATCC 292130) (ATCC 292130)) was over 100 µM throughout.
For `N=C(N)NCCC[C@H](NC(=O)[C@@H](N)CCCNC(=N)N)C(N)=O` [Compound D3] (H-Arg-Arg-NH2), the MIC (in [1] (setting [9]); in assay [2] (clinical strain 2018XJ105); in assay [3] (clinical strain 2019XJ25); with E.coli (ATCC 25922) (ATCC 25922); in assay [4] (clinical strain 2018XJ108); in assay [5] (setting [10])) was over 100 µM each time. Moreover, the MIC (in [6] (clinical strain 2019XJ06); in [7] (clinical strain 2018XJ30); with MRSA (ATCC 43300) (ATCC 43300); against S. aureus (ATCC 292130) (ATCC 292130)) was over 100 µM in each case.
Consider `N=C(N)NCCC[C@H](NC(=O)[C@H](CCCNC(=N)N)NC(=O)[C@H](CCCNC(=N)N)NC(=O)[C@@H](N)CCCNC(=N)N)C(N)=O` [Compound D4] (H-RRRR-NH2), for which the MIC (in [1] (setting [9]); in assay [2] (clinical strain 2018XJ105); in assay [3] (clinical strain 2019XJ25); against E.coli (ATCC 25922) (ATCC 25922); in [4] (clinical strain 2018XJ108); in assay [5] (setting [10])) was over 100 µM throughout. For the same molecule, the MIC (in assay [6] (clinical strain 2019XJ06); in [7] (clinical strain 2018XJ30); in the assay on MRSA (ATCC 43300) (ATCC 43300); with S. aureus (ATCC 292130) (ATCC 292130)) was over 100 µM throughout.
As to `COC(=O)[C@H](CCCNC(=N)N)NC(=O)CCC(=O)O[C@H](c1ccc(S(C)(=O)=O)cc1)[C@@H](CF)NC(=O)C(Cl)Cl` [Compound E1], the MIC is over 100 µM in assay [1] (setting [9]); 25 µM (≈ 15.7 µg/mL) in [2] (clinical strain 2018XJ105); 25 µM (≈ 15.7 µg/mL) in [3] (clinical strain 2019XJ25); 25 µM (≈ 15.7 µg/mL) against E.coli (ATCC 25922) (ATCC 25922); 25 µM (≈ 15.7 µg/mL) in assay [4] (clinical strain 2018XJ108); over 100 µM in [5] (setting [10]). Further, the MIC in [6] (clinical strain 2019XJ06) was 25 µM (≈ 15.7 µg/mL); in assay [7] (clinical strain 2018XJ30) it was 25 µM (≈ 15.7 µg/mL); against MRSA (ATCC 43300) (ATCC 43300), 50 µM (≈ 31.4 µg/mL); in the assay with S. aureus (ATCC 292130) (ATCC 292130), 50 µM (≈ 31.4 µg/mL).
Regarding `CS(=O)(=O)c1ccc([C@@H](OC(=O)CCC(=O)N[C@@H](CCCNC(=N)N)C(N)=O)[C@@H](CF)NC(=O)C(Cl)Cl)cc1` [Compound E2], the MIC was over 100 µM in assay [1] (setting [9]); 25 µM (≈ 15.3 µg/mL) in assay [2] (clinical strain 2018XJ105); 25 µM (≈ 15.3 µg/mL) in assay [3] (clinical strain 2019XJ25); 25 µM (≈ 15.3 µg/mL) with E.coli (ATCC 25922) (ATCC 25922); 25 µM (≈ 15.3 µg/mL) in assay [4] (clinical strain 2018XJ108); over 100 µM in assay [5] (setting [10]). Further, the MIC (in [6] (clinical strain 2019XJ06); in assay [7] (clinical strain 2018XJ30); in the assay on MRSA (ATCC 43300) (ATCC 43300); against S. aureus (ATCC 292130) (ATCC 292130)) was 25 µM (≈ 15.3 µg/mL) each time.
Take `COC(=O)[C@H](CCCNC(=N)N)NC(=O)CCCC(=O)O[C@H](c1ccc(S(C)(=O)=O)cc1)[C@@H](CF)NC(=O)C(Cl)Cl` [Compound E7]: the MIC (in assay [1] (setting [9]); in assay [2] (clinical strain 2018XJ105); in assay [3] (clinical strain 2019XJ25); against E.coli (ATCC 25922) (ATCC 25922); in [4] (clinical strain 2018XJ108); in assay [5] (setting [10])) was over 100 µM throughout. In addition, the MIC (in assay [6] (clinical strain 2019XJ06); in assay [7] (clinical strain 2018XJ30); in the assay on MRSA (ATCC 43300) (ATCC 43300); in the assay on S. aureus (ATCC 292130) (ATCC 292130)) was over 100 µM throughout.
Take `CS(=O)(=O)c1ccc([C@@H](OC(=O)CCCC(=O)N[C@@H](CCCNC(=N)N)C(N)=O)[C@@H](CF)NC(=O)C(Cl)Cl)cc1` [Compound E8]: the MIC (in assay [1] (setting [9]); in [2] (clinical strain 2018XJ105); in [3] (clinical strain 2019XJ25); against E.coli (ATCC 25922) (ATCC 25922); in assay [4] (clinical strain 2018XJ108); in [5] (setting [10])) was over 100 µM throughout. In addition, the MIC (in [6] (clinical strain 2019XJ06); in assay [7] (clinical strain 2018XJ30); against MRSA (ATCC 43300) (ATCC 43300); against S. aureus (ATCC 292130) (ATCC 292130)) was over 100 µM in each case.
As to `COC(=O)[C@H](CCCNC(=N)N)NC(=O)CCCCC(=O)O[C@H](c1ccc(S(C)(=O)=O)cc1)[C@@H](CF)NC(=O)C(Cl)Cl` [Compound E13], the MIC (in assay [1] (setting [9]); in [2] (clinical strain 2018XJ105); in assay [3] (clinical strain 2019XJ25); with E.coli (ATCC 25922) (ATCC 25922); in [4] (clinical strain 2018XJ108); in [5] (setting [10])) was over 100 µM throughout. Also, the MIC (in assay [6] (clinical strain 2019XJ06); in [7] (clinical strain 2018XJ30); against MRSA (ATCC 43300) (ATCC 43300); against S. aureus (ATCC 292130) (ATCC 292130)) was over 100 µM each time.
For `CS(=O)(=O)c1ccc([C@@H](OC(=O)CCCCC(=O)N[C@@H](CCCNC(=N)N)C(N)=O)[C@@H](CF)NC(=O)C(Cl)Cl)cc1` [Compound E14], the MIC (in assay [1] (setting [9]); in [2] (clinical strain 2018XJ105); in assay [3] (clinical strain 2019XJ25); in the assay on E.coli (ATCC 25922) (ATCC 25922); in assay [4] (clinical strain 2018XJ108); in assay [5] (setting [10])) was over 100 µM each time. The MIC (in assay [6] (clinical strain 2019XJ06); in assay [7] (clinical strain 2018XJ30); against MRSA (ATCC 43300) (ATCC 43300); against S. aureus (ATCC 292130) (ATCC 292130)) was over 100 µM throughout.
